Experiments:
Type in all cases: biochemical
NAALAD-ase L = target: T1, NAALAD-ase L (Homo sapiens, UniProt Q9UQQ1); experiment: [3H]-NAAG hydrolysis assay, COS cells transfected with NAALAD-ase L; conditions: recombinant preparation from COS cells
T1 construct: To construct a full length NAALAD-ase L clone, two new primer sets were designed; expressed in transfected cells; host or cells: COS cells, transient, pcDNA-3
T1 sequence (Q9UQQ1 1-740 S100X/R686S/T687H/S689L/V690R/V691S/T692H/F693I): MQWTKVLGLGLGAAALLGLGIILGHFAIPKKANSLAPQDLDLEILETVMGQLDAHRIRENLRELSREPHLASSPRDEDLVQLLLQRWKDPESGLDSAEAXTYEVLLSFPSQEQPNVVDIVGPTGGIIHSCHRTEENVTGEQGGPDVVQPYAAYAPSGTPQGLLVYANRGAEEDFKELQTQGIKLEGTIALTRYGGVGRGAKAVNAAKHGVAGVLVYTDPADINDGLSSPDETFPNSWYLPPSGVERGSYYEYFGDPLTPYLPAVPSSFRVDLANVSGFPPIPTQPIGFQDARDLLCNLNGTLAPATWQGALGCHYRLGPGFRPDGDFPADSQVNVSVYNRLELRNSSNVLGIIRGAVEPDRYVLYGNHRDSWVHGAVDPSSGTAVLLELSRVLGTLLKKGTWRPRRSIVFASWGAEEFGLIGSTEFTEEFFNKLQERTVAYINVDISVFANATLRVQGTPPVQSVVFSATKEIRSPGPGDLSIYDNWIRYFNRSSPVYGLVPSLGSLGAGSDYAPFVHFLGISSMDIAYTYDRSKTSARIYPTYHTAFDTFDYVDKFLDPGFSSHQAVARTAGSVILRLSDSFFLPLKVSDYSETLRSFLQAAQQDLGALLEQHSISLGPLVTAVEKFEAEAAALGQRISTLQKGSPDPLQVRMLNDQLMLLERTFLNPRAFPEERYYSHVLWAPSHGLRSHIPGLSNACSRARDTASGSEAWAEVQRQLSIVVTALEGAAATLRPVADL
Description: (§1) FIG. 9: is an illustration of time course of NAALAD-ase activity. Activity of membrane preparations from COS cells transiently transfected with either NAALAD-ase I (A) or […]. Hydrolysis of 500 nM 3[H]-NAAG in 1 mM ZnCl2, 50 mM Tris.HCL (pH 7.4) was assayed for 0, 15, 30 and 60 min at 37° C. in the presence (open circles) or absence (closed circles) of 30 μM quisqualate. Reactions were terminated with 250 mM ice cold sodium phosphate and released 3[H]-glutamate measured. (C) Inhibition of NAALAD-ase I (open circles) and NAALAD-ase II (closed circles) activity by increasing concentrations of quisqualic acid expressed as % of control (activity in the absence of any inhibitor).
COS cells were maintained in complete medium (DMEM supplemented with 10% foetal calf serum, 1× non-essential amino acids and a 1× strptamycin/penicillin/glutamine mix). […] The cell titre was determined in a Coulter counter and cells were seeded in 6 well plates at a density of 15000 cells/cm^2 and allowed to reach approximately 80% confluence (˜2 days growth). […]
(§2) NAALAD-ase activity was quantified by determination of the extent of hydrolysis of N-acetyl-L-aspartyl-L-(3,4-[^3H])-glutamate as previously described (Blakeley et al., 1988). […] Assay eluates were diluated with scintillation cocktail (16 ml Ultima Gold XR) and counted in a scintillation counter (Packard). […]

[1] = target: T2, LNCaP membrane NAALAD-ase (Homo sapiens, UniProt Q04609); experiment: Scintillation proximity assay (SPA) of [3H]-NAAG hydrolysis, LNCaP cell membrane preparations
T2 construct: 10 μg of protein from LNCaP cell membrane preparations was used per reaction; endogenous in cells; host or cells: LNCaP cell membranes
Description: (§3) FIG. 10: is an illustration of NAALAD-ase activity determinations using SPA beads. (A) 10 μg of protein from LNCaP cell membrane preparations was used per reaction to develop a high throughput assay NAALAD-ase assay. Hydrolysis of 40 nM 3[H]-NAAG in 1 mM ZnCl2, 50 mM Tris-HCL (pH 7.4) was measured at 25° C. for different incubation times in a 100 μl reaction volume. Reactions were terminated by the addition of 100 μl glycine buffer (pH 3.0) and naked YS-SPA beads. (C) Inhibition of NAALAD-ase I (open circles) or LNCaP membrane NAALAD-ase (closed circles) activity by increasing concentrations of quisqualic acid expressed as a % of control (activity in the absence of any inhibitor).
(§4) NAALAD-ase assays were performed at 37° C. or 25° C. for 10 min in the presence of 50 mM Tris-HCl, pH 7.4, containing 1 mM ZnCl2. Each assay was performed in a 100 μl reaction volume containing 40 nM 3[H]-NAAG, 50 mM Tris-HCl (pH 7.4), 1 mM Zn^2+C2 and either 10 μg of recombinant NAALAD-ase I or LNCaP cell membrane preparations. Reactions were terminated by addition of 100 μl glycine buffer (pH 3.0) and 1 mg naked YS-SPA beads. After allowing the beds to settle for 30 min, the assay mixture was counted in a microtiterplate scintillation counter. […]

NAALAD-ase II = target: T3, NAALAD-ase II (Homo sapiens, UniProt Q9Y3Q0); experiment: [3H]-NAAG hydrolysis assay, membranes of COS cells transiently transfected with NAALAD-ase II
T3 construct: expressed in transfected cells; host or cells: COS cells, transient, pcDNA-3
Description: as §1
(§5) COS cells were maintained in complete medium (DMEM supplemented with 10% foetal calf serum, 1× non-essential amino acids and a 1× strptamycin/penicillin/glutamine mix). Prior to transfection cells were washed twice with PBS, Ca^+2/Mg^2+ free pre-warmed to 37° C. and dissociated from culture plates by addition of a trypsin/EDTA solution for 1–2 minutes. Cells were collected after a 10 min spin at 1600 rpm and re-suspended in 1–2 ml of equilibrated (5% CO2/95% air) pre-warmed medium. The cell titre was determined in a Coulter counter and cells were seeded in 6 well plates at a density of 15000 cells/cm^2 and allowed to reach approximately 80% confluence (˜2 days growth). For each transfection 6 μl FuGENE6 (Boehringer Mannheim, Germany) was added to 96 μl serum free medium and incubated for 5 minutes at 20° C. This preparation was added to a second tube containing 1 μg of NAALAD-ase/pcDNA3 DNA, mixed gently and allowed to stand for 15 minutes at room temperature. The DNA/FuGENE6/serum-free medium mix was pipetted into a well containing 2 ml fresh complete medium. […]
as §2

NAALAD-ase I [2] = target: T4, NAALAD-ase I (Homo sapiens, UniProt Q04609, Y75H); experiment: Scintillation proximity assay (SPA) of [3H]-NAAG hydrolysis, recombinant NAALAD-ase I membrane preparations; set-up: expressed in transfected cells
Description: as §3, §4

NAALAD-ase I [3] = target: T4, NAALAD-ase I; experiment: [3H]-NAAG hydrolysis assay, membranes of COS cells transiently transfected with NAALAD-ase I; set-up: expressed in transfected cells; host or cells: COS cells, transient, pcDNA-3 (CMV promoter)
Description: as §1, §5, §2

T4 sequence (Q04609 whole entry Y75H): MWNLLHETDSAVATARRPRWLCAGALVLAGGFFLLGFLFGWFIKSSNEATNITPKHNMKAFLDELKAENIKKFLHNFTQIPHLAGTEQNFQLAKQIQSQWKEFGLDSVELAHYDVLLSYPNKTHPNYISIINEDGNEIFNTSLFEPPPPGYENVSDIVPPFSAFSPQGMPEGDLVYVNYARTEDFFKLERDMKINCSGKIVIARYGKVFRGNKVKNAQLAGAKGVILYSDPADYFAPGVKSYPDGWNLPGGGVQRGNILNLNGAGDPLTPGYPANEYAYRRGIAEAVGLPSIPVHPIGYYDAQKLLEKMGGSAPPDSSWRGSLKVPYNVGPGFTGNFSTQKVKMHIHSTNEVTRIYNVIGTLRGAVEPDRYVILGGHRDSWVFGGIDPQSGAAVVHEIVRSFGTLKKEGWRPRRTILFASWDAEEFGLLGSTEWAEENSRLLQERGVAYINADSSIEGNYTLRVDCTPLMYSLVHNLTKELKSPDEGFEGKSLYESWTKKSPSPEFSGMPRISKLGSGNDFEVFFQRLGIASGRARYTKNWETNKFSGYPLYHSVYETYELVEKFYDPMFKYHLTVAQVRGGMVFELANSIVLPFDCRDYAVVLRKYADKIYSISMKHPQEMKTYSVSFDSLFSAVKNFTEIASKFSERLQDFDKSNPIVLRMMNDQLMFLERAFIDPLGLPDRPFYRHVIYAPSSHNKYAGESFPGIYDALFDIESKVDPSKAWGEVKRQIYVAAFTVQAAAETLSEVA
T3 sequence (Q9Y3Q0 whole entry): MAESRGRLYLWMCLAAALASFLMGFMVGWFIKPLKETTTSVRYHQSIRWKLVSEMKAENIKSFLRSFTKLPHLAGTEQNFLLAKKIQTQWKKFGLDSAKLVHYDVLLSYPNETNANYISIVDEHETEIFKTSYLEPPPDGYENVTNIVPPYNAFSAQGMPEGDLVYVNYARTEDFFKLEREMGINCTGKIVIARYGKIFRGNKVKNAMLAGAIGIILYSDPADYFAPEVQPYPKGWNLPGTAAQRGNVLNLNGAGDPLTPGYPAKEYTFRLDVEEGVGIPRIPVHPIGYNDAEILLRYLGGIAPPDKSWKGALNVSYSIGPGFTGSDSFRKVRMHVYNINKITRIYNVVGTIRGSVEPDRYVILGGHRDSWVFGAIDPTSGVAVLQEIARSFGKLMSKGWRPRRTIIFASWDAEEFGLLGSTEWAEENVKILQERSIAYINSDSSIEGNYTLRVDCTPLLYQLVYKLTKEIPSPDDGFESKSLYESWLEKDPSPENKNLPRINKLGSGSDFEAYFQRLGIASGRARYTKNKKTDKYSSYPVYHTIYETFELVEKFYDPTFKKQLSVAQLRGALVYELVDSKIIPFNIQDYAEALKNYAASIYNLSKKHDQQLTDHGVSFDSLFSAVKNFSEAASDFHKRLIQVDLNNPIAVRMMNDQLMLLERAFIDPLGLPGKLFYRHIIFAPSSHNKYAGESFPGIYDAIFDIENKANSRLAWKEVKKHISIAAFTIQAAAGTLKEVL
T2 sequence (Q04609 whole entry): as the sequence (Q04609 whole entry Y75H) above, with H75Y counted along it

N[C@@H](Cn1oc(=O)[nH]c1=O)C(=O)O [quisqualic acid]
inhibition of NAALAD-ase L activity against NAAG (NAALAD-ase L): inhibited
IC50 [1]: 0.91 µM
inhibition at 30 µM (NAALAD-ase II; 30 μM, after 60 min (FIG. 9B)): > 50%
IC50 (NAALAD-ase II; IC50, inhibition of NAALAD-ase II activity, 500 nM [3H]-NAAG, 37° C., 60 min, anion exchange column readout (FIG. 9C)): 17 µM
IC50 (NAALAD-ase II; IC50 for NAALAD-ase II (discussion, rounded), recombinant preparation from COS cells, NAAG hydrolysis): ~10 µM
IC50 (NAALAD-ase I [2]): 1 µM
inhibition at 30 µM (NAALAD-ase I [3]; 30 μM, after 60 min (FIG. 9A)): > 50%
IC50 (NAALAD-ase I [3]; IC50, inhibition of NAALAD-ase I activity, 500 nM [3H]-NAAG, 37° C., 30 min, anion exchange column readout (FIG. 9C)): 12 µM
IC50 (NAALAD-ase I [3]; IC50 for NAALAD-ase I (discussion, rounded), recombinant preparation from COS cells, NAAG hydrolysis): ~10 µM
